Two molecules from ChEMBL document CHEMBL1127417, “Multisubstrate inhibition of 4-hydroxybenzoate 3-monooxygenase” (J Med Chem, 1994) can be followed below.

SMILES strings stand for the structures.

The target in assay [1] is T1, p-hydroxybenzoate hydroxylase (Pseudomonas fluorescens, UniProt P00438). Put plainly: Binding affinity against p-hydroxybenzoate hydroxylase (PHBH) from Pseudomonas fluorescence competing with p-hydroxy benzoic acid.
Assay [2] deals with T1, p-hydroxybenzoate hydroxylase. Put plainly: Binding affinity against p-hydroxybenzoate hydroxylase (PHBH) from Pseudomonas fluorescence competing with NADPH.
Assay [3] has the same target. Put plainly: Inhibitory concentration against p-hydroxybenzoate hydroxylase (PHBH) from Pseudomonas fluorescence.

T1 sequence (P00438 whole entry): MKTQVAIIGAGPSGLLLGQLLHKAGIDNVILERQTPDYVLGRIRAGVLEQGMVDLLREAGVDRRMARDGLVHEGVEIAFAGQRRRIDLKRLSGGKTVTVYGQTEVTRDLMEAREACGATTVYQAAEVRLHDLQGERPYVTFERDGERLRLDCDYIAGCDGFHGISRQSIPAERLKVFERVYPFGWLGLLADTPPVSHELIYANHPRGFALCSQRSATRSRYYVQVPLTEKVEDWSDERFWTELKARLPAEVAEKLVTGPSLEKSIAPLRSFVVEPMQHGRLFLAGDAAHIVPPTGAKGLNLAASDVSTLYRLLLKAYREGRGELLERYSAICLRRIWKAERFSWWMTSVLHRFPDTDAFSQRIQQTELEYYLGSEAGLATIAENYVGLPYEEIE

In the case of `O=C(O)c1ccc(O)cc1OCc1ccccc1`, the Ki in assay [1] was 0.059 µM; in assay [2], 0.069 µM.

In turn, `O=C(O)c1ccc(O)c(OCc2ccccc2)c1` gave a concentration for half-maximal inhibition (IC50) in assay [3] of 100 µM.
